# Data reported in patent publication US20160208249A1, “Compositions and Methods for Inducing Senescence in Cancer Cells” (INSERM (Institut National de la Sante et de la Recherche …, priority 2013, published 2016).
# Tests used:
# A375 melanoma cells = assay: Senescence associated-β-Gal assay; type: cell-based, human; details: 4 days
# Protocol: Senescence associated-β-Gal assay: Cells were washed then fixed for 15 min at RT and stained using the Senescence β-Galactosidase staining kit following manufacturer instruction (Cell Signaling, Beverly, Mass.). A blue color reflects the β-Gal activity.
# (§1) Transcription Factor Decoys (TFD) preparation and treatment. Double stranded TFDs were obtained by annealing at 95 C two complementary single stranded oligos (purchased from Invitrogen). TFDs were designed by copying the NF-kB2 sequences discovered on the EZH2 promoter (i.e. p52 decoy referred as and TFD4 as previously described). […] If not otherwise described cells were incubated with the TFDs for 4 days prior harvesting for qPCR evaluation of EZH2 levels or Senescence associated-β-Gal assay. As non specific control, a scramble sequence was used.
# EZH2 [1] = assay: qRT-PCR analysis of EZH2 mRNA in A375 cells; type: cell-based, human; details: for EZH2 mRNA: A375 cells treated for 3 days (FIG. 1B)
# Protocol: Transfection experiments with Small interfering RNAs (siRNAs): Typically 30 000 to 50 000 cells were plated in 6-well culture plates and transfected 24 hours later with 25 nM or 50 nM siRNAs using Lipofectamine RNAimax (Invitrogen) according to manufacturer protocol. If not otherwise described cells were incubated with the si-RNA for 4 days prior harvesting for further experiments. […] As non specific control, a scramble sequence siRNA was used (cat. 16106, Ambion, Life Technologies, Grand Island, N.Y.).
# (§2) Quantitative RT-PCR analysis: Total RNA was isolated from cells using RNAeasy minikit (Qiagen) according to manufacturer's procedure. Reverse transcription was performed using AMV reverse transcription system (Promega) while quantitative PCR was performed with Power Sybr green (Applied biosystem, Life Technologies, Grand Island, N.Y.) following manufacturer instructions (List of primers are available in supplementary information). PCR reaction was carried on a Step One plus Real-Time PCR system (Applied Biosystems). All analyses were done in triplicate and melting curve analysis was performed to control for product quality and specificity. Expression levels were calculated using the comparative method of relative quantification, with SB34 as normalizer. Data were analyzed for their statistical significance applying Student's t-test. Results are presented as mean±SEM relative to the control.
# as §1
# EZH2 [2] = assay: Western blot of EZH2 protein in melanoma cell lines; type: cell-based, human; details: metastatic melanoma cell lines carrying or not B-RAF V600E; PGJ2 2 μM 3 days, Bay 11-7082 2 μM 4 days
# Protocol: Western Blot: Twenty to thirty micrograms of total proteins were run on 12% SDS-polyacrylamide gel electrophoresis. After transfer to polyvinylidene fluoride membrane (Millipore), immunoblotting was performed according to Laemli method. Glyceraldehyde-3-phosphate dehydrogenase (GAPDH), β-Actin or ERK2 were used as loading controls. Membranes were then incubated with an enhanced chemiluminescence system (Amersham) and immunoreactive bands were visualized using the luminescent image analyzer Fujifilm LAS-4000 (GE Healthcare).
# NF-kB = NF-kB luciferase reporter activity in melanoma cells; type: cell-based, human; details: A375, 4 days; PGJ2 1.5 μM, Bay 11-7082 2 μM, sulfasalazine 50 μM (FIG. 8A)
# Protocol: Cells were transfected with NF-kB-luciferase reporter (NF-kB-Luc, Qiagen Germantown Md.) sensitive to overall NF-kB activation and with CMV promoter b-Galactosidase (pCMVβGal) for normalization purpose. Lipofectamine 2000 (Invitrogen, Carlsbad, Calif.) was used as transfection agent. 48 hrs post transfection, luciferase activity was tested using the luciferase assay system kit (Promega) and measured with the Clarity Luminescence Microplate Reader (Bio-Tek Instruments, Winooski, Vt.).
# For gene reporter activity post gene silencing using RNA interference, cells were first transfected with SiRNAs according to experimental design using as transfecting agent Lipofectamine RNAimax as previously described. 24 hrs post transfection cells were again transfected using EZH2 promoter Renilla construct or NF-kB-luciferase reporter and pCMVβGal. 48 hrs after addition of the reporter plasmid, cells were harvested and luciferase or Renilla activity measured as above mentioned.
# melanoma = details: cited from earlier work
# EZH2 [3] = assay: EZH2 level in melanoma cells cultured from patients' metastases; type: cell-based, human; details: melanoma cells from nine patients' metastases, PGJ2 2 μM 3 days / 1.5 μM 4 days
# Protocol: Cell Culture: HEK293, Human A375 (CRL-1619), SK-Mel-28 (HTB-72) and MeWo (HTB-65) melanoma cell lines were purchased from American Tissue Culture Collection (Molsheim, France). Human primary melanoma cells were extracted from metastatic melanoma specimens that were obtained from the Department of Dermatology and the Biobank of the University hospital of Nice, France. All patients provided informed written consent. Biopsy was dissected and digested for 1-2 h with collagenase A (0.33 U/ml), dispase (0.85 U/ml) and Dnase I (144 U/ml) with rapid shaking at 37° C. Large debris were removed by filtration through a 70-μm cell strainer. Viable cells were obtained by Ficoll gradient centrifugation. […]
# as §2, with “PCR reaction was carried on a Step One plus Real-Time PCR system (Applied Biosystems). All analyses were done in triplicate and melting curve analysis was performed to control for product quality and specificity.” left out, “Results are presented as mean±SEM relative to the control.” left out
Compound,senescence / SA-β-Gal activity (A375 melanoma cells),EZH2 mRNA (EZH2 [1]),EZH2 at protein level (EZH2 [2]),NF-kB activity (NF-kB),also measured
"TFD4: p52 decoy, double stranded DNA ODN: forward ATCGGGGCTCACC (SEQ ID NO: 8), reverse GGTGAGCCCCGAT (SEQ ID NO: 9) (DNA, backbone and methylation of C not given here)",induce senescence,–,–,–,–
Cc1ccc(S(=O)(=O)/C=C/C#N)cc1 [Bay 11-7082],–,marked decrease,decrease of EZH2 at protein level,inhibition of NF-kB activity,–
Ipilimumab: anti-CTLA-4 antibody used for the treatment of melanoma,–,–,–,–,patients responding to treatment (melanoma; melanoma patients): 10%; overall survival (melanoma; stage 4 melanoma patients): increased the overall survival
"TFD1: p52 decoy, double stranded DNA ODN: forward ATCGGGTCTCC (SEQ ID NO: 6), reverse GGAGAGCCCGAT (SEQ ID NO: 7) (DNA, backbone and methylation of C not given here)",induce senescence,–,–,–,–
"CCCCC/C=C/C=C1/C(=O)C=C[C@@H]1C/C=C\CCCC(=O)O [PGJ2, 15-deoxy-delta12,14-Prostaglandin J2]",–,marked decrease,decrease of EZH2 at protein level,inhibition of NF-kB activity,"start of effect on EZH2 mRNA (EZH2 [1]; A375, time and dose dependent (FIG. 1C)): ≤ 6 h; EZH2 protein level (EZH2 [3]): consistent decrease of EZH2"
O=C(O)c1cc(/N=N/c2ccc(S(=O)(=O)Nc3ccccn3)cc2)ccc1O [sulfasalazine],–,marked decrease,decrease of EZH2 at protein level,inhibition of NF-kB activity,–
